In patent US20170210738A1, “GLUCOSE TRANSPORT INHIBITORS” (Bayer Pharma Aktiengesellschaft, priority 2014, published 2017):

Each compound was assayed against T1, GLUT2 (Homo sapiens, UniProt P11168) (assay: Indirect measurement of GLUT activity by quantification of intracellular ATP levels: fructose induced ATP increase (GLUT2 inhibition)). Details: 30 mM fructose, 1 uM Rotenone, 15 min; CellTiter-Glo ATP levels; DLD1 or CHO-K1 cells; read-out: IC50 regarding fructose induced ATP increase (GLUT2 inhibition).
T1 construct: host or cells: DLD1 or CHO-K1
T1 sequence (P11168 1-524): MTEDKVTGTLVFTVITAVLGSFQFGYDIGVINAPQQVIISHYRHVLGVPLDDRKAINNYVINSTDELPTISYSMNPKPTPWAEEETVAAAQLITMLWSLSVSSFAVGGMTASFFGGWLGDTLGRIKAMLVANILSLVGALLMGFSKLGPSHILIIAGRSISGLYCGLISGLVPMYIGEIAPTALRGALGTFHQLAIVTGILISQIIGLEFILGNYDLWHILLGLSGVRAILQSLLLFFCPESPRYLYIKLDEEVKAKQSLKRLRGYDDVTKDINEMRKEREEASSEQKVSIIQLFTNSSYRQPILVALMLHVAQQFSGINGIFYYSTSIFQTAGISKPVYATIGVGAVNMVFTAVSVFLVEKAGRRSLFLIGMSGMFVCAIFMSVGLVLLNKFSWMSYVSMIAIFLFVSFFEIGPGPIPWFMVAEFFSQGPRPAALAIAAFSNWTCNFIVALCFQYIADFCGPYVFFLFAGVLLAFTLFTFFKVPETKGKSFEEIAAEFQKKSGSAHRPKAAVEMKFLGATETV
Format: cell-based
Description: (§1) Indirect Measurement of GLUT Activity by Quantification of Intracellular ATP Levels
(§2) It is well known that a combination of small-molecule inhibitors of mitochondrial electron transport chain and glucose catabolism synergistically suppress ATP production and impair cellular viability (Ulanovskaya et al., 2008, 2011; Liu, et al. 2001). We therefore used DLD1 or CHO-K1 cells in combination with an oxidative phosphorylation inhibitor to identify GLUT inhibitors. Cell lines were maintained in DMEM medium supplemented with 10% FCS and 1% Penicillin-Streptomycin solution and 2% Glutamax. The cells were treated with trypsin and seeded into 384 plates at a density of 4000 cells/well. The cells were then cultured overnight in glucose free media containing 1% FCS to reduce intracellular ATP levels. After 24 h the cells were incubated at 37° C. containing the appropriate glucose or in case of GLUT2 fructose concentration (1 mM and 30 mM respectively) with or without compounds and 1 uM Rotenone for 15 min. The CellTiter-Glo® Luminescent Cell Viability Assay from Promega was then used to measure ATP levels. Compounds able to reduce the ATP levels within 15 min of glucose application were considered to be glucose uptake inhibitors.

IC50 [µM]	SMILES
5.99	Cc1ccc2nc(C)cc(C(=O)Nc3cnn(Cc4ccc(F)cc4)c3C)c2c1 [Example 1, N-[1-(4-fluorobenzyl)-5-methyl-1H-pyrazol-4-yl]-2,6-dimethylquinoline-4-carboxamide]
1.65	COc1cc(C(=O)Nc2cnn(Cc3ccc(C#N)cc3)c2C)c2ccccc2n1 [Example 10, N-[1-(4-cyanobenzyl)-5-methyl-1H-pyrazol-4-yl]-2-methoxyquinoline-4-carboxamide]

These compounds were tested against T2, GLUT1 (Homo sapiens, UniProt P11166) (assay: Indirect measurement of GLUT activity by quantification of intracellular ATP levels: glucose induced ATP increase (GLUT1 inhibition)). Details: DLD1 cells; 1 mM glucose, 1 uM Rotenone, 15 min; CellTiter-Glo ATP levels; IC50 values standardized to cytochalasin B IC50 values; read-out: IC50 regarding glucose induced ATP increase (GLUT1 inhibition).
T2 construct: endogenous in cells; host or cells: DLD1 or CHO-K1
T2 sequence (P11166 1-492): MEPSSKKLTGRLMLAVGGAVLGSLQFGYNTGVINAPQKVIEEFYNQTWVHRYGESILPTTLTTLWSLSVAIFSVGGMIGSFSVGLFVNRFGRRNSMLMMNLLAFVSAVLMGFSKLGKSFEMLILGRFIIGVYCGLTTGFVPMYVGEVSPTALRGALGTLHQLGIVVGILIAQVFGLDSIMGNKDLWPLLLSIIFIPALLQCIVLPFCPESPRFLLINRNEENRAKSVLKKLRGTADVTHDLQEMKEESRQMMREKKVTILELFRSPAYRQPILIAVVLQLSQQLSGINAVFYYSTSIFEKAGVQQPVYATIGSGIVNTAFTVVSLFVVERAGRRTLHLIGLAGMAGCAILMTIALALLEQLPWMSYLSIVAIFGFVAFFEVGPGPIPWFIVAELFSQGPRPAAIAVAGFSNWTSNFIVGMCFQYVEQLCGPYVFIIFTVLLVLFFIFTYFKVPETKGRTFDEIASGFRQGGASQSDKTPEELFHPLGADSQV
Format: cell-based
Description: as §1, §2

SMILES	IC50 [nM]
CCc1noc(Cn2ncc(NC(=O)c3cc(C(F)(F)F)nc4ccc(Br)cc34)c2C)n1 [Example 35, 6-bromo-N-{1-[(3-ethyl-1,2,4-oxadiazol-5-yl)methyl]-5-methyl-1H-pyrazol-4-yl}-2-(trifluoromethyl)quinoline-4-carboxamide]	1200
Cc1nc(Cn2ncc(NC(=O)c3cc(C(F)(F)F)nc4ccc(Br)cc34)c2C)cs1 [Example 41, 6-bromo-N-{5-methyl-1-[(2-methyl-1,3-thiazol-4-yl)methyl]-1H-pyrazol-4-yl}-2-(trifluoromethyl)quinoline-4-carboxamide]	284
CC(C)c1c(NC(=O)c2cc(C(N)=O)nc3cc(F)ccc23)cnn1Cc1ccc(C#N)cc1 [Example 33, N^4-[1-(4-cyanobenzyl)-5-isopropyl-1H-pyrazol-4-yl]-7-fluoroquinoline-2,4-dicarboxamide]	940
O=C(Nc1cnn(Cc2ccc(F)cc2)c1C(=O)O)c1cc(C(F)(F)F)nc2ccc(Br)cc12 [Example 17, 4-({[6-bromo-2-(trifluoromethyl)quinolin-4-yl]carbonyl}amino)-1-(4-fluorobenzyl)-1H-pyrazole-5-carboxylic acid]	10200
CNC(=O)c1nc(Cn2ncc(NC(=O)c3cc(C(N)=O)nc4ccccc34)c2C)no1 [Example 36, N^4-(5-methyl-1-{[5-(methylcarbamoyl)-1,2,4-oxadiazol-3-yl]methyl}-1H-pyrazol-4-yl)quinoline-2,4-dicarboxamide]	2220
Cc1cc(Cn2ncc(NC(=O)c3cc(C(N)=O)nc4ccccc34)c2C)no1 [Example 45, N^4-{5-methyl-1-[(5-methyl-1,2-oxazol-3-yl)methyl]-1H-pyrazol-4-yl}quinoline-2,4-dicarboxamide]	222
Cc1c(NC(=O)c2cc(C(F)(F)F)nc3cc(F)c(F)cc23)cnn1Cc1ccc(F)cc1 [Example 2, 6,7-difluoro-N-[1-(4-fluorobenzyl)-5-methyl-1H-pyrazol-4-yl]-2-(trifluoromethyl)quinoline-4-carboxamide]	124
N#Cc1ccc(Cn2ncc(NC(=O)c3cc(C(F)(F)F)nc4ccc(Br)cc34)c2C(=O)O)cc1 [Example 20, 4-({[6-bromo-2-(trifluoromethyl)quinolin-4-yl]carbonyl}amino)-1-(4-cyanobenzyl)-1H-pyrazole-5-carboxylic acid]	10200
COc1cc(C(=O)Nc2cnn(Cc3ccc(F)cc3)c2C)c2ccccc2n1 [Example 3, N-[1-(4-fluorobenzyl)-5-methyl-1H-pyrazol-4-yl]-2-methoxyquinoline-4-carboxamide]	152

Compounds with a lower IC50, results first:

IC50 [nM]	SMILES
9.4	Cc1ccc2nc(C)cc(C(=O)Nc3cnn(Cc4ccc(F)cc4)c3C)c2c1 [Example 1, N-[1-(4-fluorobenzyl)-5-methyl-1H-pyrazol-4-yl]-2,6-dimethylquinoline-4-carboxamide]
4	COc1ccc(Cn2ncc(NC(=O)c3cc(C(F)(F)F)nc4ccc(Br)cc34)c2C)cc1 [Example 12, 6-bromo-N-[1-(4-methoxybenzyl)-5-methyl-1H-pyrazol-4-yl]-2-(trifluoromethyl)quinoline-4-carboxamide]
95	Cc1c(NC(=O)c2cc(C(N)=O)nc3ccccc23)cnn1Cc1ccc(F)c(F)c1 [Example 26, N^4-[1-(3,4-difluorobenzyl)-5-methyl-1H-pyrazol-4-yl]quinoline-2,4-dicarboxamide]
2.9	Cc1c(NC(=O)c2cc(C3CC3)nc3ccc(Br)cc23)cnn1Cc1ccc(C#N)cc1 [Example 23, 6-bromo-N-[1-(4-cyanobenzyl)-5-methyl-1H-pyrazol-4-yl]-2-cyclopropylquinoline-4-carboxamide]
87	COc1cc(C(=O)Nc2cnn(Cc3ccc(C#N)cc3)c2C)c2ccccc2n1 [Example 10, N-[1-(4-cyanobenzyl)-5-methyl-1H-pyrazol-4-yl]-2-methoxyquinoline-4-carboxamide]
12	Cc1c(NC(=O)c2cc(C(F)(F)F)nc3ccc(Br)cc23)cnn1Cc1ccc(C#N)cc1 [Example 8, 6-bromo-N-[1-(4-cyanobenzyl)-5-methyl-1H-pyrazol-4-yl]-2-(trifluoromethyl)quinoline-4-carboxamide]
43	CCc1c(NC(=O)c2cc(C(N)=O)nc3cc(F)c(Cl)cc23)cnn1Cc1ccc(C#N)cc1 [Example 32, 6-chloro-N^4-[1-(4-cyanobenzyl)-5-ethyl-1H-pyrazol-4-yl]-7-fluoroquinoline-2,4-dicarboxamide]
52	Cc1c(NC(=O)c2cc(C(N)=O)nc3ccccc23)cnn1Cc1cccc(F)c1 [Example 27, N^4-[1-(3-fluorobenzyl)-5-methyl-1H-pyrazol-4-yl]quinoline-2,4-dicarboxamide]
